Measurements as given in patent publication US20240108644A1, “TUMOR IMMUNOTHERAPY” (The Trustees of Columbia University in the City of New York, priority 2021, published 2024).
“Also recorded” adds a separate entry of the source.

Legend:
[1] = system: human tumor Tregs (TI-Tregs); experiment: viability of sorted tumor Tregs vs peripheral Tregs at peripheral-Treg EC20 dose; assay type: cell-based; conditions: at peripheral-Treg EC20 (IC20) dose; TI-Tregs from clear cell renal carcinoma expanded ex vivo
Description: To reduce study complexity and cost, the inventors first assessed the effect of a library of 1,554 FDA-approved and investigational compounds on human-derived P-Treg viability at a single, relatively large concentration (5 μM). For this screen, human P-Tregs were flow sorted, expanded ex vivo, and drug treated in a 96-well plate format (FIG. 6A). The inventors then selected 195 compounds that inhibited P-Treg viability ≥60% (FIG. 6B). To further reduce the number of candidate drugs, the inventors then generated 10-point drug response curves to identify the 48 h EC20 concentration of the 195 compounds, then selected a repertoire of 86 compounds with the lowest EC20 for efficient perturbational profile analysis in a 96-well format, when considering inclusion of vehicle controls (DMSO). As previously reported (Bush et al., 2017; Douglass et al., 2020), the 48 h EC20 (maximum sublethal) concentration was selected to effectively assess the 24 h drug mechanism of action, while reducing confounding effects arising from activation of cell stress or death pathways. Finally, the EC20 concentration of each compound was then used to perturb TI-Tregs flow-sorted from a chemo-naïve human clear cell carcinoma specimen and expanded ex vivo, into 96-well plates, followed by RNA-seq profiling using the fully automated PLATE-Seq technology (Bush et al., 2017; Douglass et al., 2020). Viability, as well as perturbational RNA-seq profiles of TI-Tregs were collected (FIGS. 6C-D). […]

[2] = system: MC38 syngeneic tumor model; experiment: MC38 tumor growth and survival in immune-competent C57BL/6J mice; assay type: in vivo
Description: 10 C57BL/6J mice per treatment arm were implanted with subcutaneous MC38 tumor cells. Treatment was initiated after 12 days of initial tumor growth, at which point mice were monitored for tumor volume until exceeding 1000 mm^3 or ulceration exceeding a diameter of 5 mm. […] Floxuridine and triapine were IP daily from day 12-18 at 1 mg/kg and 5 mg/kg, respectively, also reflecting 1/10th the standard murine dose. Mice receiving anti-PD-1 were administered anti-PD-1 IP on days 12, 15, and 18.

[3] = system: TI-Treg MR proteins (17-MR protein signature); experiment: PLATE-Seq perturbational RNA-seq of TI-Tregs with VIPER / OncoTreat analysis; assay type: cell-based, human; conditions: for patient-by-patient inhibition of TI-Treg vs P-Treg MR activity (OncoTreat): individual TI- vs. P-Treg signatures of all 36 patients
Description: To reduce study complexity and cost, the inventors first assessed the effect of a library of 1,554 FDA-approved and investigational compounds on human-derived P-Treg viability at a single, relatively large concentration (5 μM). For this screen, human P-Tregs were flow sorted, expanded ex vivo, and drug treated in a 96-well plate format (FIG. 6A). The inventors then selected 195 compounds that inhibited P-Treg viability ≥60% (FIG. 6B). To further reduce the number of candidate drugs, the inventors then generated 10-point drug response curves to identify the 48 h EC20 concentration of the 195 compounds, then selected a repertoire of 86 compounds with the lowest EC20 for efficient perturbational profile analysis in a 96-well format, when considering inclusion of vehicle controls (DMSO). As previously reported (Bush et al., 2017; Douglass et al., 2020), the 48 h EC20 (maximum sublethal) concentration was selected to effectively assess the 24 h drug mechanism of action, while reducing confounding effects arising from activation of cell stress or death pathways. Finally, the EC20 concentration of each compound was then used to perturb TI-Tregs flow-sorted from a chemo-naïve human clear cell carcinoma specimen and expanded ex vivo, into 96-well plates, followed by RNA-seq profiling using the fully automated PLATE-Seq technology (Bush et al., 2017; Douglass et al., 2020). Viability, as well as perturbational RNA-seq profiles of TI-Tregs were collected (FIGS. 6C-D). By using the differential protein activity signature in drug- vs. vehicle control-treated TI-Tregs, we identified the compounds capable of inducing the most statistically significant inactivation of TI-Treg-specific MR proteins (OncoTreat algorithm (Alvarez et al., 2018). From this analysis, 32 compounds were nominated as statistically significant inhibitors of the 17-MR protein signature (FIG. 7B), seven of which preferentially depleted TI-Treg vs. P-Treg viability in vitro (FIGS. 6C-D), and which were also found to inhibit patient-by-patient TI-Treg vs P-Treg MRs across all tumor types and nearly all patients (FIG. 6E).
Wells of drug-treated Tregs were RNA-Sequenced and each normalized with viperSignature against the internal DMSO-control wells on the same PLATE. VIPER was run on the normalized gene expression using the T-cell ARACNe network inferred from sorted bulk-RNA-Sequencing clinical data. Drugs were ranked on their overall inversion across patients of the 17-gene Master Regulator signature previously identified and validated by CRISPR (FIG. 7B), as well as on their patient-by-patient inversion of Tumor-Treg vs Peripheral-Treg protein activity signature by OncoTreat (FIG. 6E).

[4] = system: TRC3 cluster Tregs (enriched for TI-Treg MRs); experiment: scRNA-seq of MC38 tumor- and spleen-derived Tregs after gemcitabine; assay type: in vivo, FoxP3Yfp-Cre mice; conditions: 24 hours after single 12 mg/kg dose
MC38 tumors = experiment: MC38 tumor growth and survival in immune-deficient NSG mice; assay type: in vivo
Description: To assess whether low-dose gemcitabine effects were immune-mediated, we performed parallel dose titrations in immune-competent C57BL/6J mice and severely immune-deficient NSG (NOD.Cg-Prkdc^scid Il2rg^tm1Wj1/SzJ) mice lacking both innate and adaptive immunity.
To test whether immune-dependent activity could be observed in this range of concentrations, we dosed cohorts of mice with 1-10 mg/kg gemcitabine, with an additional cohort of C57BL/6J mice receiving anti-PD-1 in combination.
To further assess the doses at which gemcitabine inhibits tumor growth and the immune-mediated effects of gemcitabine, the inventors performed parallel dose titrations of Gem in immune-competent C57BL/6J mice and immune-deficient NSG (NOD.Cg-Prkdc^scid Il2rg^tm1Wjl/SzJ) mice, administering doses ranging from 0.12 mg/kg up to 120 mg/kg as shown in FIGS. 4D-E. At least 5 mice were treated per treatment arm. Doses were administered IP on days 12, 15, and 18, and treatment response was assessed by and Kaplan-Meier test (FIG. 8E).

SMILES	differential TI-Treg vs. P-Treg viability reduction (toxicity) [1]	tumor growth inhibition ([2]; triapine 5 mg/kg IP daily day 12-18, alone or with anti-PD-1)	patient-by-patient inhibition of TI-Treg vs P-Treg MR activity (OncoTreat) [3]	efficacy in dose titration ([2]; between 12 mg/kg and 1.2 mg/kg, C57BL/6J)	dose range found to be immunogenic ([2]; dosed Q3D) [mg/kg]	advantage in C57BL/6 vs NSG mice ([2]; gemcitabine 1.2 mg/kg, p=0.09)	survival C57BL/6J vs. NSG ([2]; gemcitabine 10 mg/kg, p=0.253)	tumor growth kinetics vs vehicle ([2]; gemcitabine 12 mg/kg IP days 12, 15, 18, late stage MC38, p=0.003)	survival vs vehicle ([2]; gemcitabine 12 mg/kg IP days 12, 15, 18, late stage MC38, p=0.006)	tumor growth relative to vehicle control ([2]; gemcitabine 120 mg/kg, C57BL/6J, p<0.001 by Cox regression)	difference between C57BL/6J and NSG strains ([2]; gemcitabine 120 mg/kg, p=0.19)	inhibition (down-regulation) of the 17-MR TI-Treg protein activity signature ([3]; TI-Tregs treated at EC20, 24 h, drug vs DMSO, VIPER protein activity)	TRC1 occupancy [4]	change of TRC3 occupancy in spleen population ([4]; spleen)	TRC3 cluster frequency among TI-Tregs ([4]; tumor, vehicle 30.1%, p=1.51e-20) [%]	efficacy in dose titration (MC38 tumors; between 12 mg/kg and 1.2 mg/kg, NSG)	activity in NSG mice (MC38 tumors; gemcitabine 3 mg/kg, p=0.84)	tumor growth relative to vehicle control (MC38 tumors; gemcitabine 120 mg/kg, NSG, p<0.001 by Cox regression)	tumor growth inhibition ([2]; floxuridine 1 mg/kg IP daily day 12-18, alone or with anti-PD-1)
NC(=S)N/N=C/c1ncccc1N [triapine]	among the top 6 inducing the most significant differential TI- vs. P-Treg viability reduction	gemcitabine was the only treatment found to significantly inhibit tumor growth	among the seven most significant TI-Treg MR activity inhibitors	–	–	–	–	–	–	–	–	–	–	–	–	–	–	–	–
Nc1ccn([C@@H]2O[C@H](CO)[C@@H](O)C2(F)F)c(=O)n1 [gemcitabine]	preferential cytotoxic capacity against TI-Tregs; also recorded: preferentially toxic to TI-Tregs; also recorded: among the top 6 inducing the most significant differential TI- vs. P-Treg viability reduction	–	among the seven most significant TI-Treg MR activity inhibitors	efficacy was lost	3 to 10	trending but non-significant advantage	trending survival advantage	significantly inhibit tumor growth; also recorded: significant reduction in growth kinetics	prolongation of survival	inhibited tumor growth	no significant difference	inhibits transcriptional activity of TI-Treg MRs	proportional increase	virtually no change	14.9	efficacy was lost	lack any activity	inhibited tumor growth	–
O=c1[nH]c(=O)n([C@H]2C[C@H](O)[C@@H](CO)O2)cc1F [floxuridine]	among the top 6 inducing the most significant differential TI- vs. P-Treg viability reduction	–	among the seven most significant TI-Treg MR activity inhibitors	–	–	–	–	–	–	–	–	–	–	–	–	–	–	–	gemcitabine was the only treatment found to significantly inhibit tumor growth
